The values that follow come from article PMC4757768, “Mechanisms of amphetamine action illuminated through optical monitoring of dopamine synaptic vesicles in Drosophila brain” (Nature Communications, 2016).

In the test the target is T1, VMAT2 (Rattus norvegicus, UniProt Q01827).
T1 construct: gene Slc18a2
Put plainly: inhibition of [3H]dopamine uptake in digitonin-treated HEK293 cells stably expressing rat VMAT2; binding Ki […] at mammalian VMAT2 also reported. Type of test: cell-based.

T1 sequence (Q01827 whole entry): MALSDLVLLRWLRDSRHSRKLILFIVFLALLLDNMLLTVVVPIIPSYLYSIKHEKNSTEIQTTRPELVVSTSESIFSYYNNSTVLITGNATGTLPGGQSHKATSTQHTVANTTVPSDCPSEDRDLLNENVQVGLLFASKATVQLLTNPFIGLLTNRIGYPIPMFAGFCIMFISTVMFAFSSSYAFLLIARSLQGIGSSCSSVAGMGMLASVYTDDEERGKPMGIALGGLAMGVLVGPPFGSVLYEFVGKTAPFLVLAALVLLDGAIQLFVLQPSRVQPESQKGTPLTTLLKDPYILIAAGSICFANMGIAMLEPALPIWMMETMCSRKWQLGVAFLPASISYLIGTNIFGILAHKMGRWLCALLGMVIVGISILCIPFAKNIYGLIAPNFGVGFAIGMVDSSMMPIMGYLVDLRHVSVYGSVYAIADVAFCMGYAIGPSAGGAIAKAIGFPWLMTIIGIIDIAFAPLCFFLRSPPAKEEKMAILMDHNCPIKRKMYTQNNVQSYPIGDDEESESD

The IC50 is the concentration needed to halve the response being measured. Consider `COc1cc2c(cc1O)[C@H]1CC(=O)[C@H](CC(C)C)CN1CC2` [(+)-CYY477], for which the IC50 was 26 nM.
